Laboratory results from paper PMC12282101, “Heat shock protein 90 chaperone activity is required for hepatitis A virus replication” (Journal of Virology, 2025).
Structures can show the parent of a compound that is named as a salt. Where two headings read alike, the source gives them in different places.

What was measured:
Huh-7.5.1 cells [1] = conditions: Huh-7.5 or Huh-7.5.1 cells, RT-qPCR experiments
HM175/18f virus [2] = system: HM175/18f virus
in vitro = conditions: human
HM175/18f virus [3] = test: microbe, parasite or virus in culture; conditions: Hepatovirus A, Huh-7.5.1, read-out: IC50, HAV replication by RT-qPCR
Huh-7.5.1 cells [4] = conditions: 10 µM
18f-NLuc reporter virus [5] = test: microbe, parasite or virus in culture; assay type: cell-based, Hepatitis A virus; conditions: for activity at 10 µM: Hepatovirus A, Huh-7.5.1, 72 h, read-out: Normalized HAV production
18f-NLuc reporter virus [6] = conditions: for IC50: read-out: IC50, HAV replication by NLuc
HAV = conditions: cited from earlier work

**Q.** For `COc1cccc(-c2cc(F)ccc2[C@H]2Cc3nc(N)nc(C)c3C(=O)N2)n1` [HSP990], which CC50 (Huh-7.5.1 cells [1]) is on record?
**A.** 0.0569 µM

**Q.** What about the IC50 (HM175/18f virus [2]; read-out: IC50, HAV replication by RT-qPCR) of the same compound?
**A.** 0.0022 µM

**Q.** What about the “Blocking of HAV replication (in words)” value (HM175/18f virus [2]; targeted screen of heat shock protein inhibitors, RT-qPCR) of the same compound?
**A.** highly active

**Q.** What does the source list for `CC(C)c1cc(-c2n[nH]c(=O)n2-c2ccc3c(ccn3C)c2)c(O)cc1O` [STA9090]?
**A.** Blocking of HAV replication (in words) (HM175/18f virus [2]): highly active; CC50 (in vitro): 0.147 µM; IC50 (HM175/18f virus [3]): 0.0121 µM

**Q.** With `C=C1CC[C@@H]2[C@](C)(COC(=O)CCC(=O)[O-])[C@H](OC(=O)CCC(=O)O)CC[C@@]2(C)[C@@H]1/C=C/C1=CCOC1=O.[K+]` [Dehydroandrographolide Succinate Potasium Salt] as the compound, how does the “Viability Percent DMSO” value (Huh-7.5.1 cells [4]) read?
**A.** 102 Percent DMSO

**Q.** What about the “Normalized HAV production” value (18f-NLuc reporter virus [5]) of the same compound?
**A.** 1.19

**Q.** For `CC(C)(C)Oc1cccc2nc(N)nc(N)c12` [HZ-1157], which “Viability Percent DMSO” value (Huh-7.5.1 cells [4]) is on record?
**A.** 16 Percent DMSO

**Q.** And the “Normalized HAV production” value (18f-NLuc reporter virus [5])?
**A.** 2.12

**Q.** What does the source list for `Cc1c(-c2cnccn2)ssc1=S` [Oltipraz]?
**A.** Viability Percent DMSO (Huh-7.5.1 cells [4]): 90 Percent DMSO; activity at 10 µM (18f-NLuc reporter virus [5]): 113%

**Q.** With `NC12CC3CC(CC(C3)C1)C2` [Amantadine hydrochloride] as the compound, how does the “Viability Percent DMSO” value (Huh-7.5.1 cells [4]) read?
**A.** 111 Percent DMSO

**Q.** What about the activity at 10 µM (18f-NLuc reporter virus [5]) of the same compound?
**A.** 87%

**Q.** Which CC50 (Huh-7.5 cells) does the source give for JG98 here?
**A.** > 1 µM

**Q.** And the “Anti-HAV activity relative to CC50 (in words)” value (18f-NLuc reporter virus [6])?
**A.** only at concentrations close to their CC50

**Q.** And the IC50 (18f-NLuc reporter virus [6])?
**A.** 0.534 µM

**Q.** What does the source list for `CC(C)OC(=O)[C@H](C)N[P@](=O)(CO[C@H](C)Cn1cnc2c(N)ncnc21)Oc1ccccc1` [Tenofovir alafenamide]?
**A.** Viability Percent DMSO (Huh-7.5.1 cells [4]): 75 Percent DMSO; activity at 10 µM (18f-NLuc reporter virus [5]): 141%

**Q.** Which “Viability Percent DMSO” value (Huh-7.5.1 cells [4]) does the source give for `COC(=O)N[C@H](C(=O)NNC[C@H](O)[C@H](Cc1ccccc1)NC(=O)[C@@H](NC(=O)OC)C(C)(C)C)C(C)(C)C` [Des(benzylpyridyl) Atazanavi] here?
**A.** 159 Percent DMSO

**Q.** And the “Normalized HAV production” value (18f-NLuc reporter virus [5])?
**A.** 0.67

**Q.** For `N#Cc1ccc(COC[C@H]2O[C@@H](n3c(NCc4ccc(Cl)c(Cl)c4)nc4c(N)ncnc43)[C@H](O)[C@@H]2O)cc1` [VER155008], which CC50 (Huh-7.5 cells) is on record?
**A.** > 10 µM

**Q.** And the “Anti-HAV activity relative to CC50 (in words)” value (18f-NLuc reporter virus [6])?
**A.** only at concentrations close to their CC50

**Q.** What about the IC50 (18f-NLuc reporter virus [6]) of the same compound?
**A.** 3.32 µM

**Q.** With `Nc1nc(=O)n([C@@H]2CS[C@H](CO)O2)cc1F` [Emtricitabine] as the compound, how does the “Viability Percent DMSO” value (Huh-7.5.1 cells [4]) read?
**A.** 123 Percent DMSO

**Q.** And the activity at 10 µM (18f-NLuc reporter virus [5])?
**A.** 120%

**Q.** With `CCc1cc(C(N)=O)ccc1-n1nc(C(C)C)c2c(-n3cnc(-c4cnn(C)c4)c3)ccnc21` [TAS116] as the compound, how does the “Blocking of HAV replication (in words)” value (HM175/18f virus [2]) read?
**A.** highly active

**Q.** And the CC50 (in vitro)?
**A.** 0.835 µM

**Q.** And the IC50 (HM175/18f virus [3])?
**A.** 0.0843 µM

**Q.** Which “HAV replication in cell culture (in words)” value (HAV) does the source give for `COc1ccccc1[C@H](Cn1c(=O)n(C(C)(C)C(=O)O)c(=O)c2c(C)c(-c3ncco3)sc21)OC1CCOCC1` [firsocostat] here?
**A.** potently inhibits

**Q.** Which “Viability Percent DMSO” value (Huh-7.5.1 cells [4]) does the source give for `NC(=O)c1ncn([C@@H]2O[C@H](CO)[C@@H](O)[C@H]2O)n1` [Ribavirin] here?
**A.** 117 Percent DMSO

**Q.** What about the activity at 10 µM (18f-NLuc reporter virus [5]) of the same compound?
**A.** 112%

**Q.** Which “Viability Percent DMSO” value (Huh-7.5.1 cells [4]) does the source give for `Cc1ccc(NC(=O)C(=O)NC2CC(C)(C)NC(C)(C)C2)cc1` [YYA-021] here?
**A.** 121 Percent DMSO

**Q.** What about the “Normalized HAV production” value (18f-NLuc reporter virus [5]) of the same compound?
**A.** 1.03
